# From PubChem BioAssay (NCI)
#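 Protocol summary: plate cells (96-well), add compound at 5 concentrations, incubate 48 h, interpolate endpoints linearly. At the GI50, growth is halved. TGI marks complete inhibition of growth.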
# Assays:
# Experiment in all cases: NCI-60 cell line screen, 48 h
# U251 CNS = tested on: U251 CNS
# CAKI-1 renal = tested on: CAKI-1 renal
# SK-MEL-28 melanoma = tested on: SK-MEL-28 melanoma
# RPMI-8226 leukemia = tested on: RPMI-8226 leukemia
# CCRF-CEM leukemia = tested on: CCRF-CEM leukemia
# NCI-H226 lung = tested on: NCI-H226 lung
# OVCAR-4 ovarian = tested on: OVCAR-4 ovarian
# OVCAR-8 ovarian = tested on: OVCAR-8 ovarian
# HS 578T breast = tested on: HS 578T breast
# HL-60(TB) leukemia = tested on: HL-60(TB) leukemia
# COLO 205 colon = tested on: COLO 205 colon
# SW-620 colon = tested on: SW-620 colon
# DU-145 prostate = tested on: DU-145 prostate
# A549 NSCLC = tested on: A549 NSCLC
# A498 renal = tested on: A498 renal
# PC-3 prostate = tested on: PC-3 prostate
# TK-10 renal = tested on: TK-10 renal
# NCI-H23 lung = tested on: NCI-H23 lung
# NCI-H460 lung = tested on: NCI-H460 lung
# MDA-MB-231 breast = tested on: MDA-MB-231 breast
# SK-MEL-2 melanoma = tested on: SK-MEL-2 melanoma
# M14 melanoma = tested on: M14 melanoma
# SF-295 CNS = tested on: SF-295 CNS
# SF-539 CNS = tested on: SF-539 CNS
# BT-549 breast = tested on: BT-549 breast
# SF-268 CNS = tested on: SF-268 CNS
# NCI-H522 lung = tested on: NCI-H522 lung
# HCT-15 colon = tested on: HCT-15 colon
# UO-31 renal = tested on: UO-31 renal
# OVCAR-5 ovarian = tested on: OVCAR-5 ovarian
# MDA-MB-435 = tested on: MDA-MB-435
# NCI/ADR-RES ovarian = tested on: NCI/ADR-RES ovarian
# SK-OV-3 ovarian = tested on: SK-OV-3 ovarian
# MALME-3M melanoma = tested on: MALME-3M melanoma
# HCC-2998 colon = tested on: HCC-2998 colon
# LOX IMVI melanoma = tested on: LOX IMVI melanoma
# OVCAR-3 ovarian = tested on: OVCAR-3 ovarian
# MDA-MB-468 breast = tested on: MDA-MB-468 breast
# KM12 colon = tested on: KM12 colon
# EKVX NSCLC = tested on: EKVX NSCLC
# HOP-92 NSCLC = tested on: HOP-92 NSCLC
# K-562 leukemia = tested on: K-562 leukemia
# UACC-62 melanoma = tested on: UACC-62 melanoma
# SN12C renal = tested on: SN12C renal
# SNB-19 CNS = tested on: SNB-19 CNS
# UACC-257 melanoma = tested on: UACC-257 melanoma
# HOP-62 NSCLC = tested on: HOP-62 NSCLC
# IGROV1 ovarian = tested on: IGROV1 ovarian
# SK-MEL-5 melanoma = tested on: SK-MEL-5 melanoma
# 786-0 renal = tested on: 786-0 renal
# SR leukemia = tested on: SR leukemia
# MCF7 breast = tested on: MCF7 breast
# RXF 393 renal = tested on: RXF 393 renal
# T-47D breast = tested on: T-47D breast
# ACHN renal = tested on: ACHN renal
# HT29 colon = tested on: HT29 colon
# HCT-116 colon = tested on: HCT-116 colon
# MOLT-4 leukemia = tested on: MOLT-4 leukemia
compound,measurement,setting,value
COc1ccc(C(=O)/C=C/c2c(F)cccc2Cl)cc1S(N)(=O)=O,GI50,U251 CNS,1.73 µM
same,TGI,U251 CNS,3.69 µM
same,GI50,CAKI-1 renal,4.07 µM
same,TGI,CAKI-1 renal,13.9 µM
same,GI50,SK-MEL-28 melanoma,3.6 µM
same,TGI,SK-MEL-28 melanoma,14 µM
same,GI50,RPMI-8226 leukemia,2.57 µM
same,TGI,RPMI-8226 leukemia,8 µM
same,GI50,CCRF-CEM leukemia,2.59 µM
same,TGI,CCRF-CEM leukemia,6.78 µM
same,GI50,NCI-H226 lung,3.23 µM
same,TGI,NCI-H226 lung,12.3 µM
same,GI50,OVCAR-4 ovarian,4.13 µM
same,TGI,OVCAR-4 ovarian,20.5 µM
same,GI50,OVCAR-8 ovarian,3.01 µM
same,TGI,OVCAR-8 ovarian,12.3 µM
same,GI50,HS 578T breast,6.43 µM
same,TGI,HS 578T breast,> 100 µM
same,GI50,HL-60(TB) leukemia,1.65 µM
same,TGI,HL-60(TB) leukemia,6.46 µM
same,GI50,COLO 205 colon,2.17 µM
same,TGI,COLO 205 colon,3.95 µM
same,GI50,SW-620 colon,3.61 µM
same,TGI,SW-620 colon,20.7 µM
same,GI50,DU-145 prostate,3.3 µM
same,TGI,DU-145 prostate,12.5 µM
same,GI50,A549 NSCLC,2.38 µM
same,TGI,A549 NSCLC,10.1 µM
same,GI50,A498 renal,15.9 µM
same,TGI,A498 renal,32 µM
same,GI50,PC-3 prostate,4.67 µM
same,TGI,PC-3 prostate,19.7 µM
same,GI50,TK-10 renal,3.53 µM
same,TGI,TK-10 renal,9.79 µM
same,GI50,NCI-H23 lung,3.04 µM
same,TGI,NCI-H23 lung,10.8 µM
same,GI50,NCI-H460 lung,3.01 µM
same,TGI,NCI-H460 lung,> 100 µM
same,GI50,MDA-MB-231 breast,2.88 µM
same,TGI,MDA-MB-231 breast,7.71 µM
same,GI50,SK-MEL-2 melanoma,3.96 µM
same,TGI,SK-MEL-2 melanoma,16.4 µM
same,GI50,M14 melanoma,2.62 µM
same,TGI,M14 melanoma,10.6 µM
same,GI50,SF-295 CNS,3.1 µM
same,TGI,SF-295 CNS,11 µM
same,GI50,SF-539 CNS,2.01 µM
same,TGI,SF-539 CNS,4.22 µM
same,GI50,BT-549 breast,2.72 µM
same,TGI,BT-549 breast,8.63 µM
same,GI50,SF-268 CNS,3.33 µM
same,TGI,SF-268 CNS,16.7 µM
same,GI50,NCI-H522 lung,1.67 µM
same,TGI,NCI-H522 lung,3.51 µM
same,GI50,HCT-15 colon,1.35 µM
same,TGI,HCT-15 colon,3.38 µM
same,GI50,UO-31 renal,2.94 µM
same,TGI,UO-31 renal,11.9 µM
same,GI50,OVCAR-5 ovarian,3.02 µM
same,TGI,OVCAR-5 ovarian,11.1 µM
same,GI50,MDA-MB-435,3.39 µM
same,TGI,MDA-MB-435,15.7 µM
same,GI50,NCI/ADR-RES ovarian,2.83 µM
same,TGI,NCI/ADR-RES ovarian,9.24 µM
same,GI50,SK-OV-3 ovarian,5.36 µM
same,TGI,SK-OV-3 ovarian,17.1 µM
same,GI50,MALME-3M melanoma,3.99 µM
same,TGI,MALME-3M melanoma,16.4 µM
same,GI50,HCC-2998 colon,2.78 µM
same,TGI,HCC-2998 colon,10.3 µM
same,GI50,LOX IMVI melanoma,1.61 µM
same,TGI,LOX IMVI melanoma,3.34 µM
same,GI50,OVCAR-3 ovarian,2.53 µM
same,TGI,OVCAR-3 ovarian,8.4 µM
same,GI50,MDA-MB-468 breast,1.47 µM
same,TGI,MDA-MB-468 breast,4.12 µM
same,GI50,KM12 colon,2.59 µM
same,TGI,KM12 colon,6.66 µM
same,GI50,EKVX NSCLC,4.12 µM
same,TGI,EKVX NSCLC,14.4 µM
same,GI50,HOP-92 NSCLC,3.58 µM
same,TGI,HOP-92 NSCLC,15.3 µM
same,GI50,K-562 leukemia,2.82 µM
same,TGI,K-562 leukemia,14.2 µM
same,GI50,UACC-62 melanoma,2.02 µM
same,TGI,UACC-62 melanoma,6.55 µM
same,GI50,SN12C renal,2.59 µM
same,TGI,SN12C renal,10.5 µM
same,GI50,SNB-19 CNS,4.24 µM
same,TGI,SNB-19 CNS,15.2 µM
same,GI50,UACC-257 melanoma,2.99 µM
same,TGI,UACC-257 melanoma,16.6 µM
same,GI50,HOP-62 NSCLC,3.01 µM
same,TGI,HOP-62 NSCLC,9.42 µM
same,GI50,IGROV1 ovarian,2.8 µM
same,TGI,IGROV1 ovarian,10.4 µM
same,GI50,SK-MEL-5 melanoma,3.06 µM
same,TGI,SK-MEL-5 melanoma,12.3 µM
same,GI50,786-0 renal,2.99 µM
same,TGI,786-0 renal,10.5 µM
same,GI50,SR leukemia,1.41 µM
same,TGI,SR leukemia,5.61 µM
same,GI50,MCF7 breast,2.19 µM
same,TGI,MCF7 breast,11.2 µM
same,GI50,RXF 393 renal,1.74 µM
same,TGI,RXF 393 renal,4.56 µM
same,GI50,T-47D breast,2.42 µM
same,TGI,T-47D breast,9.53 µM
same,GI50,ACHN renal,2.8 µM
same,TGI,ACHN renal,8.33 µM
same,GI50,HT29 colon,1.91 µM
same,TGI,HT29 colon,3.81 µM
same,GI50,HCT-116 colon,1.76 µM
same,TGI,HCT-116 colon,3.78 µM
same,GI50,MOLT-4 leukemia,2.41 µM
same,TGI,MOLT-4 leukemia,7.58 µM
